These are literature values, as cited in PMC2777304 (PLoS Pathogens, 2009).

Where a name gives a salt, the structure may show the parent alone.

The conditions of this data set: mouse, in vivo.

Consider `CCN(CC)CCCC(C)Nc1c2ccc(Cl)cc2nc2ccc(OC)cc12` (stereo not shown) [quinacrine, Quinacrine dihydrochloride], for which the “Highest nontoxic tolerable dose” value is recorded as 40 mg/kg/day.
